# Assay results taken from US20240050396A1, “COMPOSITIONS AND METHODS FOR THE TREATMENT OF SOLID TUMORS” (POLYPID LTD., priority 2020, published 2024).
# Like-named read-outs stand apart in the source and are kept apart here.
# Assays:
# [1] = iv; NDA 020449; cited from earlier work
# [2] = test system: 9L GBM cell line tumor in the brain; assay: Syngeneic 9L GBM intra-brain tumor survival (Example 10); assay type: in vivo, Fischer rats
# Description: Seventy-five (75) animals were designated for this study. The animals were divided into nine groups as described in Table 6. Group 1 served as untreated control. Groups 2 and 3 served as positive controls and were treated with temozolomide (SOC chemotherapy treatment in GBM patients) by gavage in low (33.5 mg/kg) and high doses (50 mg/kg), respectively. Group 4 (n=10) was treated with Formulation II vehicle at the defect site in the same amount as the Formulation II high amount group. Groups 5-8 (n=10/group) were treated at the excision site Formulation II at 5, 10, 25, or 50 mg/defect site. At study initiation, an incision was made and the calvarium bone of all animals was exposed and 5 mm diameter defect was drilled in the calvarium bone. The dura was cut and the brain was exposed. Each animal was injected with 9L cells (10^5 cells/2 μL/animal) at a depth of ˜1 mm in the brain using a stereotaxic instrument. Following injection of the cells, the incision was sutured. Animals were returned to their cages to recover. Treatment (temozolomide or Formulation II) was set to start five days post cell injection. For Formulation II/Formulation II vehicle treatment, the brain defects in Groups 4-8 were reopened and test articles were administered on top of the site of injection, inside the defect at Day 5. The defects were sealed with bone wax. Animals were returned to their cages to recover. Survival, clinical signs, body weight, and evaluation of cognitive behavior were followed during the study.
# CT-26 cell line = settings: CT-26, resistant cell line; cited from earlier work
# [3] = test system: DLD-1 colorectal carcinoma cells; settings: cited from earlier work
# KB-D-15 Epidermoid cells = settings: cited from earlier work
# [4] = test system: HCT-15 colorectal carcinoma cells; settings: cited from earlier work
# [5] = Pharmacokinetic profile of locally administered formulations vs i.v docetaxel (Example 11); assay type: in vivo, Sprague-Dawley female Rats
# From the text: This study compared the pharmacokinetics profile of docetaxel sustained release composition according to several embodiments of the invention administered to rats. The systemic PK profile of docetaxel released from the local administered formulations was compared to the PK profile of docetaxel administered i.v.
# Animals: 30 Sprague-Dawley female Rats weighing+/−200 gram
# Experimental Design—three study groups (n=10) were included in this study. Animals were anesthetized and skin above the right hip was cut (1 cm long) and lifted, creating a SC pocket. By making this pocket, the underlying muscle was slightly injured, mimicking the situation of the resection of SC tumor graft in the rat model. Each animal received the treatment as detailed in Table 7. In Groups 1 and 2, Formulations VI and I respectively were administered in the SC pocket on top of the injured muscle. The skin was then sutured. In the i.v. treated group (Group 3), the administration of treatment was given once, immediately after wound closure. After administration, blood samples were collected in the designated time points. Each treatment group was divided to two subgroups (n=5/subgroup) and each subgroup was sampled at the different time points. Blood was collected at 0.5, 1, 2, 4, 8, 12, and 24 hours and at 2, 3, 4, 5, 6, 7, 14, 21, and 30 days post-administration. Clinical signs and animal weights were followed during the study. The concentration of the released docetaxel in the plasma samples was evaluated by a liquid chromatography tandem mass spectrometry (LC-MS/MS) method (lower limit of quantitation [LLOQ]=3 ng/mL). The results were used to determine the PK profile of docetaxel.
# KB-8-5 Epidermoid cells = settings: cited from earlier work
# CRC: HCT-116 cells = settings: HCT-116, non-resistant; cited from earlier work
# [6] = test system: HCT-8 colorectal carcinoma cells; settings: cited from earlier work
# [7] = test system: KB-PTX/099 Epidermoid cells; settings: cited from earlier work
# [8] = test system: A549.EpoB40 non squamous cell lung carcinoma; settings: cited from earlier work
# NSCLC: A549 cells = settings: A549, non-resistant; cited from earlier work
# KB-V-1 Epidermoid cells = settings: cited from earlier work
# KB-P-15 Epidermoid cells = settings: cited from earlier work
# [9] = test system: CT-26 subcutaneous colon carcinoma tumors; settings: for survival rate / tumor free animals: Day 39; for average tumor volume: after 39 days; for day animals started to gain weight: mouse, in vivo
# From the text: In the current experiment, the efficacy of local treatment with extended-release formulations according to some embodiments of the invention was compared to systemic treatment with Docetaxel. For that, subcutaneous colon carcinoma tumors were established in female BALB/c mice (7-8 weeks old, weighing ±16-20 gram at study initiation) and after reaching a desired volume (400-600 mm^3), they were resected and ˜90% of their volume was removed followed by administration of the test items. The recurrence rate of the tumors was followed and compared to an untreated control group.
# Animals were injected SC with 0.5 million CT-26 cells above the right hip. When the tumor reached the desired volume (400 mm^3) after ˜7 days, animals were divided to five groups, mice were anesthetized, and the tumors were resected. Group 1 was administered with 200 mg of formulation VI containing 1.3% docetaxel (2.6 mg/mouse) to the tumor bed and Group 2 was administered with 200 mg of formulation I containing 0.88% docetaxel ([…]) to the tumor bed. Groups 3 and 4 were treated by repeated i.v injections of docetaxel solution. Group 3 was administered with 20 mg/kg i.v followed by five i.v injections of 10 mg/kg, once every 4 days. Group 4 was administered with 30 mg/kg i.v followed by five IV injections of 15 mg/kg, once every 4 days. Group 5 served as a saline-treated control with ˜100 μL saline administered locally into the tumor bed. The skin incision was then closed using a sterile suture. Post-surgery, the animals were returned to their cages for recovery and observation. Tumor size, clinical signs, and body weights were followed for 39 days.
# epidermoid KB-3-1 cells = settings: KB-3-1, non-resistant; cited from earlier work
# [10] = test system: U87 human GBM cell line tumor xenograft; assay: Resected U87 GBM xenograft, different amounts of Formulation II (Example 9); settings: 300 mg/kg intraperitoneal, four times, every 7 days
# Description: This study was performed to assess the efficacy of the anti-tumor effect of different amounts of the sustained release compositions according to some exemplary embodiments of the invention on U87 human GBM cell line tumor xenograft in nude mice.
# Mice were injected subcutaneously (SC) with 3 million U87 cells above the right hip. When the tumor reached the volume of about 400 mm^3 after about 9 days, animals were divided to six groups (n=10/group), the mice were anesthetized, and the tumors were resected. The tumor bed sizes were measured and documented. Groups 1, 2 and 3 were administered 20, 50, or 100 mg of formulation II; 0.87% docetaxel locally on the tumor bed, respectively. Group 4 was administered 100 mg of formulation II vehicle (excipients only without DTX) locally on the tumor bed. Group 5 served as a saline control in which ˜100 μL saline was administered locally into the tumor bed. Group 6 served as positive control and was treated with gemcitabine (300 mg/kg administered as an intraperitoneal injection, four times, every 7 days). The skin incision was then closed using a sterile suture. Post-surgery, the animals were returned to their cages for recovery and observation. Tumor size, clinical signs, and body weights were followed for 43 days.
# After tumor resection, the area of the tumor bed was measured. […] The applications of Formulation II were calculated and normalized to amount per 1 cm^2 tumor bed area. The normalized application rates and docetaxel doses are detailed in Table 5.
# LLC1 cell line tumors = assay: Antitumor and anti-metastatic effect on resected LLC1 tumors (Example 13); assay type: in vivo; settings: 6 mg/kg IP twice a week
# Description: The objective of this study was to assess the efficacy of the antitumor and anti-metastatic effect of different amounts of Formulation II on mouse syngeneic louis lung carcinoma (LLC1) cell line tumors in C57BL mice. The selected cell line (LLC1) is known to spontaneously form metastases in the lungs originating from a primary tumor.
# Male C57BL mice, 7-8 weeks old, weighing 18-21 grams were designated for this study. LLC1 tumor cells were injected SC to the back of the mice. When the tumors reached a volume of about 400 mm^3 they were resected (at least 90% of the tumor volume was removed; average area of 0.7 cm^2). The animals were divided into 6 groups (n=10). Groups 1-4 were administered different amounts of Formulation II directly to the tumor bed. Untreated group (Group 5) served as negative control and systemically treated group (Group 6) served as positive control. Five (5) animals served as sham group, they were not injected with tumor cells but underwent the surgical procedure (Group 7). Following treatment, the surgical site was sewed and animals were returned to their cages for recovery. Animals that had tumors larger than 1500 mm^3 were humanly terminated. At termination the number of metastases in the lungs was counted in each animal.
# The number of metastases was counted post termination/death. In some cases, the lungs condition didn't allow evaluation of metastases. were too decomposed and therefore the number of metastases in these lungs were not evaluated. The counting discriminated between small metastases (0.1-0.5 mm) and big metastases (>0.5 mm). In case of large number of metastases (>100), it was defined as too numerus to count (TNTC).
# [11] = female, Sprague-Dawley, rat, intravenous, plasma docetaxel, single i.v 10 mg/kg
# [12] = female, Sprague-Dawley, rat, iv, plasma docetaxel, single i.v 10 mg/kg
smiles,measurement,setting,value
CC(=O)O[C@@]12CO[C@@H]1C[C@H](O)[C@@]1(C)C(=O)[C@H](O)C3=C(C)[C@@H](OC(=O)[C@H](O)[C@@H](NC(=O)OC(C)(C)C)c4ccccc4)C[C@@](O)([C@@H](OC(=O)c4ccccc4)[C@H]21)C3(C)C [Taxotere],maximal tolerated dose (MTD) and non-lethal dose (NLD) reported,[1],10 mg/kg
Cn1nnc2c(C(N)=O)ncn2c1=O [Temozolomide],mean survival,[2]; 33.5 mg/kg PO daily for 5 days,18.8 ± 2.7 days
same,mean survival,[2]; 50 mg/kg PO daily for 5 days,21.8 ± 3.3 days
same,survival rate,"[2]; day 23, 33.5 mg/kg, 5 treatment days",0%
CC(=O)O[C@@]12CO[C@@H]1C[C@H](O)[C@@]1(C)C(=O)[C@H](O)C3=C(C)[C@@H](OC(=O)[C@H](O)[C@@H](NC(=O)OC(C)(C)C)c4ccccc4)C[C@@](O)([C@@H](OC(=O)c4ccccc4)[C@H]21)C3(C)C [docetaxel],IC50,CT-26 cell line,260 nM
same,IC50,[3],16.2 nM
same,IC50,KB-D-15 Epidermoid cells,68.2 nM
same,IC50,[4],54.1 nM
same,Cmax of i.v relative to max exposure of Formulation VI,[5]; 881 vs. 80.4 ng/ml,more than 10 fold
same,AUC(0-t),[5]; [11],2280 ng·h/mL
same,Cmax,[5]; [11],881 ng/mL
same,C0,[5]; [12],881 ng/mL
same,Tmax,[5]; [12],0 h
same,half-life,[5]; [12],23.1 h
same,Tlast,"[5]; plasma docetaxel, single i.v 10 mg/kg",72 h
same,IC50,KB-8-5 Epidermoid cells,8.8 nM
same,IC50,CRC: HCT-116 cells,5.4 nM
same,IC50,[6],3070 nM
same,IC50,[7],8.8 nM
same,IC50,[8],28.5 nM
same,IC50,NSCLC: A549 cells,1.9 nM
same,IC50,KB-V-1 Epidermoid cells,468 nM
same,IC50,KB-P-15 Epidermoid cells,17.6 nM
same,survival rate,[9]; i.v 10 mg/kg every 4 days,50%
same,survival rate,[9]; i.v 15 mg/kg every 4 days,63%
same,tumor free animals,[9]; i.v 20 mg/kg then five injections of 10 mg/kg every 4 days,2/8
same,tumor free animals,[9]; i.v 30 mg/kg then five injections of 15 mg/kg every 4 days,3/8
same,average tumor volume,[9]; i.v 10 mg/kg every 4 days,955 mm^3
same,average tumor volume,[9]; i.v 15 mg/kg every 4 days,485 mm^3
same,overall tumor free survival,"[9]; day 39 post surgery, five cycles of systemic treatment",25%
same,overall tumor recurrence,"[9]; end of study, extensive systemic treatment",75%
same,animals terminated early due to tumor volume that exceeded 1500 mm^3,[9]; i.v 10 mg/kg every 4 days,4
same,animals terminated early due to tumor volume that exceeded 1500 mm^3,[9]; i.v 15 mg/kg every 4 days,2
same,day animals started to gain weight,[9]; 10 mg/kg,20 days
same,day animals started to gain weight,[9]; 15 mg/kg,23 days
same,delayed tumor recurrence after tumor resection (first tumor related mortality),[9]; systemic treatment arm,9 days
same,IC50,epidermoid KB-3-1 cells,1.1 nM
Nc1ccn([C@@H]2O[C@H](CO)[C@@H](O)C2(F)F)c(=O)n1 [gemcitabine],animals found dead,[10],4
same,animals terminated due to tumor volume that exceeded 1500 mm^3,[10],4
same,survival rate,[10]; Day 43,20%
same,tumor free animals,[10]; Day 43,2/10
same,average tumor volume,[10]; after 43 days,780 mm^3
CC(=O)O[C@H]1C(=O)[C@@]2(C)[C@H]([C@H](OC(=O)c3ccccc3)[C@]3(O)C[C@H](OC(=O)[C@H](O)[C@@H](NC(=O)c4ccccc4)c4ccccc4)C(C)=C1C3(C)C)[C@]1(OC(C)=O)CO[C@@H]1C[C@@H]2O [paclitaxel],IC50,[3],32.8 nM
same,IC50,KB-D-15 Epidermoid cells,566 nM
same,IC50,[4],435 nM
same,IC50,KB-8-5 Epidermoid cells,70.2 nM
same,IC50,[6],3290 nM
same,IC50,[7],74.1 nM
same,IC50,[8],128 nM
same,IC50,KB-V-1 Epidermoid cells,3200 nM
same,IC50,KB-P-15 Epidermoid cells,117 nM
CC(=O)O[C@H]1C(=O)[C@@]2(C)[C@H]([C@H](OC(=O)c3ccccc3)[C@]3(O)C[C@H](OC(=O)[C@H](O)[C@@H](NC(=O)c4ccccc4)c4ccccc4)C(C)=C1C3(C)C)[C@]1(OC(C)=O)CO[C@@H]1C[C@@H]2O [taxel],animals that had tumor,LLC1 cell line tumors,4/10
same,average lung weight,LLC1 cell line tumors,226 ± 114 mg
same,average tumor volume,LLC1 cell line tumors,490 mm^3
same,average weight at termination lower than weight at t=0,LLC1 cell line tumors,4%
same,metastases free animals (lungs),LLC1 cell line tumors,5/10
same,animals early terminated due to tumor volume,LLC1 cell line tumors; day 23,One
same,animals found dead,LLC1 cell line tumors; day 25,one
